Results from ChEMBL document CHEMBL3351476, “The discovery of I-BET726 (GSK1324726A), a potent tetrahydroquinoline ApoA1 up-regulator and selective BET bromodomain inhibitor” (J Med Chem, 2014).
Values after ≈ are worked out from the molar mass of the structure shown.

Tests used:
[1] = target: T1, Bromodomain-containing protein 2 (Homo sapiens, UniProt P25440); experiment: Inhibition of human BRD2 bromodomain 2 by BROMOscan assay
[2] = target: T2, Bromodomain-containing protein 3 (Homo sapiens, UniProt Q15059); experiment: Binding affinity to His6-tagged BRD3 (1 to 475 aa) (unknown origin) by SPR method
[3] = target: T2, Bromodomain-containing protein 3; experiment: Inhibition of human BRD3 bromodomain 1 by BROMOscan assay
[4] = target: T2, Bromodomain-containing protein 3; experiment: Inhibition of human BRD3 bromodomain 2 by BROMOscan assay
[5] = Fraction unbound in human blood by rapid equilibrium dialysis method; format: ADME, tissue-based
[6] = Terminal half life in Balb/c mouse at 10 mg/kg, iv as bolus dose; format: ADME, organism-based; design: dose 10 mg/kg, route intravenous; conditions: in vivo, read-out: beta t1/2 (converted)
[7] = Oral bioavailability in rat at 3 mg/kg; format: ADME, organism-based; conditions: in vivo
[8] = target: Histone acetyltransferase KAT2B (Homo sapiens, UniProt Q92831); experiment: Inhibition of human PCAF by BROMOscan assay
[9] = target: T3, Bromodomain testis-specific protein (Homo sapiens, UniProt Q58F21); experiment: Inhibition of BRDT (unknown origin) by TR-FRET assay
[10] = target: Bromodomain and PHD finger-containing protein 3 (Homo sapiens, UniProt Q9ULD4); experiment: Inhibition of human BRPF3 by BROMOscan assay
[11] = test system: HepG2; experiment: Upregulation of ApoA1 in human HepG2 cells after 16 hrs by luciferase reporter assay relative to control; format: functional
[12] = target: Protein polybromo-1 (Homo sapiens, UniProt Q86U86); experiment: Inhibition of human PBRM1 bromodomain 5 by BROMOscan assay
[13] = target: E3 ubiquitin-protein ligase TRIM33 (Homo sapiens, UniProt Q9UPN9); experiment: Inhibition of human TIF1gamma PHD/bromodomain by BROMOscan assay
[14] = Volume of distribution at steady state in beagle dog at 1 mg/kg, iv as infusion and 3 mg/kg, po; format: ADME, organism-based, Canis lupus familiaris; conditions: in vivo, read-out: Vdss
[15] = target: Cytochrome P450 3A4 (Homo sapiens, UniProt P08684); experiment: Time-dependent inhibition of human recombinant CYP3A4 expressed in Escherichia coli bactosomes using diethoxyfluorescein as substrate by fluorescence assay; format: ADME; conditions: recombinant enzyme
[16] = Terminal half life in rat at 1 mg/kg, iv as infusion; format: ADME, organism-based; design: dose 1 mg/kg, route intravenous; conditions: in vivo, read-out: beta t1/2
[17] = target: Histone acetyltransferase KAT2A (Homo sapiens, UniProt Q92830); experiment: Inhibition of human GCN5 by BROMOscan assay
[18] = Fraction unbound in rat blood by rapid equilibrium dialysis method; format: ADME, tissue-based
[19] = target: Nucleosome-remodeling factor subunit BPTF (Homo sapiens, UniProt Q12830); experiment: Inhibition of human BPTF by BROMOscan assay
[20] = target: ATPase family AAA domain-containing protein 2B (Homo sapiens, UniProt Q9ULI0); experiment: Inhibition of human ATAD2B by BROMOscan assay
[21] = target: Transcription initiation factor TFIID subunit 1-like (Homo sapiens, UniProt Q8IZX4); experiment: Inhibition of human TAF1L by BROMOscan assay
[22] = AUC (0 to t) in beagle dog at 3 mg/kg, po; format: ADME, organism-based, Canis lupus familiaris; design: dose 3 mg/kg, route oral; conditions: plasma
[23] = Fraction unbound in mouse blood by rapid equilibrium dialysis method; format: ADME, tissue-based
[24] = AUC (0 to t) in Balb/c mouse at 3 mg/kg, po; format: ADME, organism-based; design: dose 3 mg/kg, route oral; conditions: plasma
[25] = Volume of distribution at steady state in Cynomolgus monkey at 1 mg/kg, iv as infusion and 3 mg/kg, po; format: ADME, organism-based, Macaca fascicularis; conditions: in vivo, read-out: Vdss
[26] = target: Bromodomain-containing protein 1 (Homo sapiens, UniProt O95696); experiment: Inhibition of human BRD1 by BROMOscan assay
[27] = target: T4, Transcription intermediary factor 1-alpha (Homo sapiens, UniProt O15164); experiment: Inhibition of human TIF1alpha bromodomain by BROMOscan assay
[28] = target: T1, Bromodomain-containing protein 2; experiment: Binding affinity to His6-tagged BRD2 (1 to 473 aa) (unknown origin) by SPR method
[29] = Solubility of the compound in fasted state simulated intestinal fluid at 125 ug/ml after 16 hrs by HPLC analysis; format: ADME; conditions: fasted state simulated intestinal fluid
[30] = Clearance in Cynomolgus monkey hepatocytes assessed per gram of tissue at 1 uM by LC-MS/MS analysis; format: ADME, cell-based, Macaca fascicularis, Hepatocyte
[31] = target: Bromodomain and WD repeat-containing protein 1 (Homo sapiens, UniProt Q9NSI6); experiment: Inhibition of human WDR9 bromodomain 2 by BROMOscan assay
[32] = target: Histone acetyltransferase p300 (Homo sapiens, UniProt Q09472); experiment: Inhibition of human EP300 by BROMOscan assay
[33] = target: T1, Bromodomain-containing protein 2; experiment: Displacement of biotinylated tetra-acetylated histone H4 from His6-tagged BRD2 (1 to 473 aa) (unknown origin) after 1 hr by TR-FRET assay
[34] = target: Cytochrome P450 1A2 (Homo sapiens, UniProt P05177); experiment: Inhibition of CYP1A2 (unknown origin) expressed in Escherichia coli bactosomes using ethoxyresorufin as substrate after 10 mins by fluorescence assay; format: ADME
[35] = target: Cytochrome P450 2D6 (Homo sapiens, UniProt P10635); experiment: Inhibition of recombinant human CYP2D6 expressed in Escherichia coli bactosomes using 4-methylaminomethyl-7-methoyxycoumarin as substrate after 10 mins by fluorescence assay; format: ADME
[36] = Oral bioavailability in Balb/c mouse at 3 mg/kg; format: ADME, organism-based; conditions: in vivo
[37] = target: T2, Bromodomain-containing protein 3; experiment: Displacement of biotinylated tetra-acetylated histone H4 from His6-tagged BRD3 (1 to 475 aa) (unknown origin) after 1 hr by TR-FRET assay
[38] = target: SWI/SNF-related matrix-associated actin-dependent regulator of chromatin subfamily A member 2 (Homo sapiens, UniProt P51531); experiment: Inhibition of human SMARCA2 by BROMOscan assay
[39] = Blood clearance in Balb/c mouse at 10 mg/kg, iv as bolus dose; format: ADME, organism-based; design: dose 10 mg/kg, route intravenous; conditions: whole blood
[40] = target: Bromodomain adjacent to zinc finger domain protein 2A (Homo sapiens, UniProt Q9UIF9); experiment: Inhibition of human BAZ2A by BROMOscan assay
[41] = target: Chromatin remodeling regulator CECR2 (Homo sapiens, UniProt Q9BXF3); experiment: Inhibition of human CECR2 by BROMOscan assay
[42] = target: Cytochrome P450 2C19 (Homo sapiens, UniProt P33261); experiment: Inhibition of CYP2C19 (unknown origin) expressed in Escherichia coli bactosomes using 3-butyryl-7-methoxycoumarin as substrate after 10 mins by fluorescence assay; format: ADME
[43] = target: T4, Transcription intermediary factor 1-alpha; experiment: Inhibition of human TIF1alpha PHD/bromodomain by BROMOscan assay
[44] = Oral bioavailability in Cynomolgus monkey at 2 mg/kg; format: ADME, organism-based, Macaca fascicularis; conditions: in vivo
[45] = target: CREB-binding protein (Homo sapiens, UniProt Q92793); experiment: Binding affinity to CREBBP (unknown origin) by ITC method
[46] = target: Cytochrome P450 2C9 (Homo sapiens, UniProt P11712); experiment: Inhibition of CYP2C9 (unknown origin) expressed in Escherichia coli bactosomes using 7-methoxy-4-trifluoromethylcoumarin-3-acetic acid as substrate after 10 mins by fluorescence assay; format: ADME
[47] = target: T3, Bromodomain testis-specific protein; experiment: Inhibition of human BRDT bromodomain 1 by BROMOscan assay

T1 sequence (P25440 whole entry, the tested form may be a part): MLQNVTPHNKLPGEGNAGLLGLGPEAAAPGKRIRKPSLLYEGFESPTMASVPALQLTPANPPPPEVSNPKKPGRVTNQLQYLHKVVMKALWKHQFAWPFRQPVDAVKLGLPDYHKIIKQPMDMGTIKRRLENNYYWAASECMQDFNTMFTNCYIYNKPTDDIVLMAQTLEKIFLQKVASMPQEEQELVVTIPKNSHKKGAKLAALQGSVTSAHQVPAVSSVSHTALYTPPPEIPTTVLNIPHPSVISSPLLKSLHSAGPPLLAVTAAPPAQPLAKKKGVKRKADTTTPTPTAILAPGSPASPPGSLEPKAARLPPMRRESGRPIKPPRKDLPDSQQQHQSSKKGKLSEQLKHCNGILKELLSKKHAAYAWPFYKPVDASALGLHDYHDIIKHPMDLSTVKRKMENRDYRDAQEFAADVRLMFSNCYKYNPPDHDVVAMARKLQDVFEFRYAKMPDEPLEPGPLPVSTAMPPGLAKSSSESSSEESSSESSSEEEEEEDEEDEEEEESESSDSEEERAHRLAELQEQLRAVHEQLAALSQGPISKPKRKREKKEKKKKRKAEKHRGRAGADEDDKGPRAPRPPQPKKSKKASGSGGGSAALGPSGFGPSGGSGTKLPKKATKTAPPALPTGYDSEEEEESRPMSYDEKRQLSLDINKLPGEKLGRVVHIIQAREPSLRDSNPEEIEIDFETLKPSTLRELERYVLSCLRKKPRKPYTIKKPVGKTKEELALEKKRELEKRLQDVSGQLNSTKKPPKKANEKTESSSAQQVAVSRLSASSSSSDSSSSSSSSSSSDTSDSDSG
T2 sequence (Q15059 whole entry, the tested form may be a part): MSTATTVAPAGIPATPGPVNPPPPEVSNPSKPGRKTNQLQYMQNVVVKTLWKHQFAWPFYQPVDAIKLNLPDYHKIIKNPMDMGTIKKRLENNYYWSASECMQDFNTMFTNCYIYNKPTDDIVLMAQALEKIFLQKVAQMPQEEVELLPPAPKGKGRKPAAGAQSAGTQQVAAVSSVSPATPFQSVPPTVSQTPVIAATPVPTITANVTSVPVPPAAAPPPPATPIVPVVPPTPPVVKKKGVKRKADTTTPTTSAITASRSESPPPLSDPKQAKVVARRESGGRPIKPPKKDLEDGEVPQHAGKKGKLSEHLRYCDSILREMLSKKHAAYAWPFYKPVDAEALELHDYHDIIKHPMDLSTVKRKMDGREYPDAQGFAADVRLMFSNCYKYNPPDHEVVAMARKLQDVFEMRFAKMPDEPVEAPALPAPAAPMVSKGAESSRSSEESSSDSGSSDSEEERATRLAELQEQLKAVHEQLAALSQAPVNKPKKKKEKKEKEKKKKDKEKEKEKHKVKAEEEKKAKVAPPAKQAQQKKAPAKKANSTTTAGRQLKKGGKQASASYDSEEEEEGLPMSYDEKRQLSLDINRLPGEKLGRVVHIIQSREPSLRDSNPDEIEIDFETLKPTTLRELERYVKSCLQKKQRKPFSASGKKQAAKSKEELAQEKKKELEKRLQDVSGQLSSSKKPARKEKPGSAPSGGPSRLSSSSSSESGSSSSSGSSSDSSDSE
T4 sequence (O15164 whole entry, the tested form may be a part): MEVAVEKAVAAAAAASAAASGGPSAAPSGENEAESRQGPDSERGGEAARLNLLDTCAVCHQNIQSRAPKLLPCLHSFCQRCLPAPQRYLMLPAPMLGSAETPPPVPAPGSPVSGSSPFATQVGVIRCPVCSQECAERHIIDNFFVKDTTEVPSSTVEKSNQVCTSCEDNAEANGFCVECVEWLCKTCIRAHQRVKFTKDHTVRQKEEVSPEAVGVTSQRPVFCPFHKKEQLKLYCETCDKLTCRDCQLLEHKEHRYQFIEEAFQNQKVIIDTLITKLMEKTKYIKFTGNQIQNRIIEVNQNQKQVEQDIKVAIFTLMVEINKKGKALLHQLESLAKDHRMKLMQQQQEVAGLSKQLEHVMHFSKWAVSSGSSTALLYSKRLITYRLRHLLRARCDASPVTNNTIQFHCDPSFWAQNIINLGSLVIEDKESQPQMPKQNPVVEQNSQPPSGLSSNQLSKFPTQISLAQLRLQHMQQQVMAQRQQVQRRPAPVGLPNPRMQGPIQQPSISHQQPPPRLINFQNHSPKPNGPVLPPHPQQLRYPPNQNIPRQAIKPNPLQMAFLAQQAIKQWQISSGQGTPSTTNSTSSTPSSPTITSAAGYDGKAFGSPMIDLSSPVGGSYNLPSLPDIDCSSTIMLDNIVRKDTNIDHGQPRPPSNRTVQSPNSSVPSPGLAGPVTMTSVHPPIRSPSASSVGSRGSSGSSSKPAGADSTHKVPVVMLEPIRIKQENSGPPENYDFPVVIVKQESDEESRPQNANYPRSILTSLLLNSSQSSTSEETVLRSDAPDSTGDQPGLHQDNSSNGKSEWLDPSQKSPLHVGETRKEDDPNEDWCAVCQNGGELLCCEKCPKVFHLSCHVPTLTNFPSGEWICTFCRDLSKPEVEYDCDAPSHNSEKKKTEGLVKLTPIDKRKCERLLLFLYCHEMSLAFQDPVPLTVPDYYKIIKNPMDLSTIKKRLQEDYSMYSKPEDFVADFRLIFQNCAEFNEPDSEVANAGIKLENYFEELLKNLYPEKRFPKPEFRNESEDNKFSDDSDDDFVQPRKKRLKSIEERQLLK
Sequence of Bromodomain and WD repeat-containing protein 1 (Q9NSI6 whole entry): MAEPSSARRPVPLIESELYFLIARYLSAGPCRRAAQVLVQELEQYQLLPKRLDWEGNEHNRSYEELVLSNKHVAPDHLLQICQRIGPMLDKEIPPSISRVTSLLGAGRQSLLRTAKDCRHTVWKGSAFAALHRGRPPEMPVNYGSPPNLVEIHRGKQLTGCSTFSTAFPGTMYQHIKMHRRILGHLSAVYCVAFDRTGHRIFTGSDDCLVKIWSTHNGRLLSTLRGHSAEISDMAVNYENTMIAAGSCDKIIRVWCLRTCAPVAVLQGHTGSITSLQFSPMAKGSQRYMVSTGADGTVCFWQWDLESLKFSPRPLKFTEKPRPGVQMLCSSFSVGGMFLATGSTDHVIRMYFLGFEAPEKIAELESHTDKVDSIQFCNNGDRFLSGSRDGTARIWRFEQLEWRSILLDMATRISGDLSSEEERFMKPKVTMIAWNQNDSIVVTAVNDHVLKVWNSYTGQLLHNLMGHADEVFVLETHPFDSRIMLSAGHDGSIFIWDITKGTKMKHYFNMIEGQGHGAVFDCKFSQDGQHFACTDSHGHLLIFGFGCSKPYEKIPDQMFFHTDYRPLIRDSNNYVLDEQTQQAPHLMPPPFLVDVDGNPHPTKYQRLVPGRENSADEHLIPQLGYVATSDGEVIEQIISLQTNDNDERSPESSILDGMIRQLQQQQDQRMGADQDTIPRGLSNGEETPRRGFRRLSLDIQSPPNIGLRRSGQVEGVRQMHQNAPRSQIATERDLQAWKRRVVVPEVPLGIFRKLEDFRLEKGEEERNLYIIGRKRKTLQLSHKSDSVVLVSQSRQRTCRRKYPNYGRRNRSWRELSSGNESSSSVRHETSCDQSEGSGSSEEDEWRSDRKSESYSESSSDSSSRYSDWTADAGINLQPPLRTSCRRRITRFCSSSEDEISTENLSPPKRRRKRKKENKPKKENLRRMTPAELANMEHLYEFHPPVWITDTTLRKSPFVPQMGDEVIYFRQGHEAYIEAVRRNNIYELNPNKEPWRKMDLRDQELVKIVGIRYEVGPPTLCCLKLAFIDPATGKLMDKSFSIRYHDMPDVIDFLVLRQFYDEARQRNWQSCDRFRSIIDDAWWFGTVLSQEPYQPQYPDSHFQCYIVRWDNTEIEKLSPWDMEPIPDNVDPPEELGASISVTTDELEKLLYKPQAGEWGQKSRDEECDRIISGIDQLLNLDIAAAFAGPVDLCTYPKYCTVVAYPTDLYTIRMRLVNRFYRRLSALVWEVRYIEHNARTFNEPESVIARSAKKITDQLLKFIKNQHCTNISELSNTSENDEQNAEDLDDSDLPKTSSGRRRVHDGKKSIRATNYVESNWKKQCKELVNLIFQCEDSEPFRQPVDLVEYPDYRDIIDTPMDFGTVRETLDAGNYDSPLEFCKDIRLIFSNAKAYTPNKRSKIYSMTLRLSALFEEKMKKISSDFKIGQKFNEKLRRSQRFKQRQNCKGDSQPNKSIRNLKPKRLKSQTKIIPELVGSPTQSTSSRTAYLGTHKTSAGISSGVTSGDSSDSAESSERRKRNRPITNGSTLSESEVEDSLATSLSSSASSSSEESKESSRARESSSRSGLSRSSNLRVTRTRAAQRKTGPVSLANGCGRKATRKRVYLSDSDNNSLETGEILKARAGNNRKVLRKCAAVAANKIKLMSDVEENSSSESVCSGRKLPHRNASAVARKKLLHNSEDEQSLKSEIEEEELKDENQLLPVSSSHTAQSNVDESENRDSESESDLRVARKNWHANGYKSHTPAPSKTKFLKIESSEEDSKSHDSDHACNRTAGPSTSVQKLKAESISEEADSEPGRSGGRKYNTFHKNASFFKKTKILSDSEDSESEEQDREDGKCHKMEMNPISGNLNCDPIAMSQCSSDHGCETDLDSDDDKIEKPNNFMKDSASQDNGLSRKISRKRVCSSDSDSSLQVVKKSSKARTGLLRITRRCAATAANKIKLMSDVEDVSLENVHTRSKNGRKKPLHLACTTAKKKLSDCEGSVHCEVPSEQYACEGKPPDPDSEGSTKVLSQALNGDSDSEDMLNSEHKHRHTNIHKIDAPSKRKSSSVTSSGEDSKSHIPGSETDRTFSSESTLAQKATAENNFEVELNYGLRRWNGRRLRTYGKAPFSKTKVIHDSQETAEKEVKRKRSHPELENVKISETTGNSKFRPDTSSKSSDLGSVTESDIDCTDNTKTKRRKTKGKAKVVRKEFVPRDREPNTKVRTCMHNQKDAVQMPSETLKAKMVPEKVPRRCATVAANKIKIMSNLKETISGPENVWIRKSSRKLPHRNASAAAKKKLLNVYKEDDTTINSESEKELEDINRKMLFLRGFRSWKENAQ

CC(=O)N1c2ccc(-c3ccc(C(=O)O)cc3)cc2[C@H](Nc2ccc(Cl)cc2)C[C@@H]1C gave an IC50 [1] of 0.00316 µM, a Kd [2] of 0.02 µM and an IC50 [3] of 0.000631 µM. It also gave an IC50 [4] of 0.002 µM, a fraction unbound [5] of 0.017 and a half-life [6] of 3.6 h. For the same molecule, the bioavailability [7] was 28%, the IC50 [8] was > 7.94 µM and the IC50 [9] was 0.0501 µM. For the same molecule, the IC50 [10] was > 0.001 µM, the pEC170 [11] was 8.1 and the IC50 [12] was > 31.6 µM. For the same molecule, the IC50 [13] was > 10 µM, the Vd [14] was 0.8 L/kg and the “inhibition (INH)” value [15] was “Active”. The half-life [16] was > 8 h, the IC50 [17] was > 0.316 µM and the fraction unbound [18] was 0.009. For the same molecule, the IC50 [19] was > 31.6 µM, the IC50 [20] was > 31.6 µM and the IC50 [21] was 31.6 µM. For the same molecule, the AUC(0-t) [22] was 5.9 µg·h/mL, the fraction unbound [23] was 0.013 and the AUC(0-t) [24] was 6.03 µg·h/mL. For the same molecule, the Vd [25] was 1 L/kg, the IC50 [26] was > 20 µM and the IC50 [27] was 10 µM. For the same molecule, the Kd [28] was 0.025 µM, the solubility at 16 h [29] was 0.106 mg/mL (≈ 244 µM) and the CLH [30] was < 0.85 mL/min/g. The IC50 [31] was 31.6 µM, the IC50 [32] was 31.6 µM and the IC50 [33] was 0.158 µM. For the same molecule, the IC50 [34] was > 33 µM, the IC50 [35] was > 33 µM and the bioavailability [36] was 45%. For the same molecule, the IC50 [37] was 0.2 µM, the IC50 [38] was > 31.6 µM and the clearance [39] was 0.186 L/h/kg. The IC50 [40] was > 31.6 µM, the IC50 [41] was > 31.6 µM and the IC50 [42] was 12 µM. It also gave an IC50 [43] of 15.8 µM, a bioavailability [44] of 103% and a Kd [45] of 6.3 µM. For the same molecule, the IC50 [46] was 13 µM and the IC50 [47] was 31.6 µM.
